Measurements published in PMC5119973 (Cancer Medicine, 2016).
Several values for one entry are separate records, joined by “and”; a condition that tells them apart may be missing. Equal values may be shown once.

Columns and labels:
Test in all cases: KINOMEscan active-site competitive binding assay
CSF1R = biological target: T1, CSF1R (Homo sapiens, UniProt P07333); details: slash = two separate measurements
T1 construct: purchased DiscoveRx (KINOMEscan service)

EPHA6 = biological target: T2, EPHA6 (Homo sapiens, UniProt Q9UF33); details: slash = two separate measurements
T2 construct: purchased DiscoveRx (KINOMEscan service)
T2 sequence (Q9UF33 23-1036): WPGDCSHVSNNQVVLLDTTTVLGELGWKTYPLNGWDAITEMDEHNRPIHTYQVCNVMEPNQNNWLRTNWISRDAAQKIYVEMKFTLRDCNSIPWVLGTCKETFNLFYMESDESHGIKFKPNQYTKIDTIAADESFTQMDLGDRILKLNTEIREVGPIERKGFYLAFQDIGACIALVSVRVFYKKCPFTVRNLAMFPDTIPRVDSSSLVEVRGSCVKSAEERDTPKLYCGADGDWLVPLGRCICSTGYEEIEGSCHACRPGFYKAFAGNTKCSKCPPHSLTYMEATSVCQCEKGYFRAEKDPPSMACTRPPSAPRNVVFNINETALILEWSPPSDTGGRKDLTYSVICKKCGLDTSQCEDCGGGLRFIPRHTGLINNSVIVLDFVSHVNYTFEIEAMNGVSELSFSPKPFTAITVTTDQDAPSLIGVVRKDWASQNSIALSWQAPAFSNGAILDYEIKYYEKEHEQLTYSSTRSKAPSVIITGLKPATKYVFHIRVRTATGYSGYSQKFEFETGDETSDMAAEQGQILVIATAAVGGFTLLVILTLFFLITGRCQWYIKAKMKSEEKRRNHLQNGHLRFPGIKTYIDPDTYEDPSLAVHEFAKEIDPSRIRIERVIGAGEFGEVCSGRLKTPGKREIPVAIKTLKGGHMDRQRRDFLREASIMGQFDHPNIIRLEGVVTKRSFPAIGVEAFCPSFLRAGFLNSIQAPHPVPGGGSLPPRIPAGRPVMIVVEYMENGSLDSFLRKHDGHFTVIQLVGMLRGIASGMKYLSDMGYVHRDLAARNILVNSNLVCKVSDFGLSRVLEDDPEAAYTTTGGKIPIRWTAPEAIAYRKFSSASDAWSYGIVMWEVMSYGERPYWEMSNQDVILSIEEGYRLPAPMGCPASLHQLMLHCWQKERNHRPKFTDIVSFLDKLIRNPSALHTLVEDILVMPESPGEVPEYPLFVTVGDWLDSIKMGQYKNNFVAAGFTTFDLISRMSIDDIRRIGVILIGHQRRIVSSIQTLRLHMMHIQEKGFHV

ERK8 = biological target: T3, ERK8 (Homo sapiens, UniProt Q8TD08); details: slash = two separate measurements
T3 construct: purchased DiscoveRx (KINOMEscan service)
T3 sequence (Q8TD08 1-544): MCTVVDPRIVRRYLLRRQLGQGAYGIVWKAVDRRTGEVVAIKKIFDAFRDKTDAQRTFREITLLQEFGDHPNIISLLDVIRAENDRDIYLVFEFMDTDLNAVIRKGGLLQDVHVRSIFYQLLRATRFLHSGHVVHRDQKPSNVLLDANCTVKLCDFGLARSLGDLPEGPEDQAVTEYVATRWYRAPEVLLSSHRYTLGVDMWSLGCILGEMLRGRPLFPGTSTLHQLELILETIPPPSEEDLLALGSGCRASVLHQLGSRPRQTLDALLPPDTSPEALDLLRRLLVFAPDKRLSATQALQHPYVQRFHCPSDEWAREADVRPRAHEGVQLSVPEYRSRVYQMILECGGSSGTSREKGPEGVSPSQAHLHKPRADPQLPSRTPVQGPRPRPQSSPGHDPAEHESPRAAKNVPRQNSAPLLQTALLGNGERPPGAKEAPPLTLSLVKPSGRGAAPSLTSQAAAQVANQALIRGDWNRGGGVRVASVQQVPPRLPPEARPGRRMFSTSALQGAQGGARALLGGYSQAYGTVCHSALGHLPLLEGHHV

MEK5 = biological target: T4, MEK5 (Homo sapiens, UniProt Q13163)
T4 construct: purchased DiscoveRx (KINOMEscan service)
T4 sequence (Q13163 1-448): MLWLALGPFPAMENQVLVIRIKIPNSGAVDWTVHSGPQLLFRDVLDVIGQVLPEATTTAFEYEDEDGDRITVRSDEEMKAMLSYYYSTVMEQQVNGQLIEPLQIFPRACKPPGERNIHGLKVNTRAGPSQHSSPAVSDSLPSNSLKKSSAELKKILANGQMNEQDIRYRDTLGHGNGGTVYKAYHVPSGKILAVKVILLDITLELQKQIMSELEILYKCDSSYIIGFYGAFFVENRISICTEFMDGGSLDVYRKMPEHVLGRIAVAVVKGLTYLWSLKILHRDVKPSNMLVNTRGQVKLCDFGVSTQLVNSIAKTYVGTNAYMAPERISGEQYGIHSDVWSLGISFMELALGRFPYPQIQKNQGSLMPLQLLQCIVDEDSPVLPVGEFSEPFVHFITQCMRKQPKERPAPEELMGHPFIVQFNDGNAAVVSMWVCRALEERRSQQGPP

MUSK = biological target: T5, MUSK (Homo sapiens, UniProt O15146); details: slash = two separate measurements
T5 construct: purchased DiscoveRx (KINOMEscan service)
T5 sequence (O15146 24-869): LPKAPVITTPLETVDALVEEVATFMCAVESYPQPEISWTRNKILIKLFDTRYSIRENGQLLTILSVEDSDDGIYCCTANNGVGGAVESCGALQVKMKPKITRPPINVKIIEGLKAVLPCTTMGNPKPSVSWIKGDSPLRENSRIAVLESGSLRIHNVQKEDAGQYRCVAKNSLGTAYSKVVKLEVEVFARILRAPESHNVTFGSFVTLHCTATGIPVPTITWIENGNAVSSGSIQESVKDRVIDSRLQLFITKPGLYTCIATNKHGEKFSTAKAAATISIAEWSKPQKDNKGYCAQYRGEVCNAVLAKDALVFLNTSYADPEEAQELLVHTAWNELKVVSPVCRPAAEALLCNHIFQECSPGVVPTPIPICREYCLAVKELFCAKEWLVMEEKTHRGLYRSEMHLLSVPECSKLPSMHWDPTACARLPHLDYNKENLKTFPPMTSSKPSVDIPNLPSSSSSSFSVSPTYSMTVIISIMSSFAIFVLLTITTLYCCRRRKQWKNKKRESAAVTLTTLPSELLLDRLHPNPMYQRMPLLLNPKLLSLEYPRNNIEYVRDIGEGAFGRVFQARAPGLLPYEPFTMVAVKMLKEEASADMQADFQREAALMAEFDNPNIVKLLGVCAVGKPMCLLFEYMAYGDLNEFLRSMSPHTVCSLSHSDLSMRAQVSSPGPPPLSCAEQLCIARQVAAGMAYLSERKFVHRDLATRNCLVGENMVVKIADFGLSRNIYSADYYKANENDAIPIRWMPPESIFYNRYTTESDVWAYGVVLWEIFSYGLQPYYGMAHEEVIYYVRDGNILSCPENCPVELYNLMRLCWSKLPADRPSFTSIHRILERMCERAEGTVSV

p38-beta = biological target: T6, p38-beta (Homo sapiens, UniProt Q15759); details: slash = two separate measurements
T6 construct: purchased DiscoveRx (KINOMEscan service)
T6 sequence (Q15759 whole entry): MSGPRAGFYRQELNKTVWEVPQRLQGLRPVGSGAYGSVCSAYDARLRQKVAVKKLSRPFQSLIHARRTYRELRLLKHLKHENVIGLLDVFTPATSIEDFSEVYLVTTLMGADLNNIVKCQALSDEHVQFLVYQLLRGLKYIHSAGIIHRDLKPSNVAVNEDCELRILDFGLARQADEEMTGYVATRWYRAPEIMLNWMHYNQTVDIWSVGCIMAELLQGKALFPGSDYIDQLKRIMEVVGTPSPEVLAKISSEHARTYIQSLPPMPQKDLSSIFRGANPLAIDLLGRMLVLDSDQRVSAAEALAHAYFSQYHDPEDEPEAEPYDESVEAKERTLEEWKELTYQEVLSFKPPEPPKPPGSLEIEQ

T1 sequence (P07333 20-972): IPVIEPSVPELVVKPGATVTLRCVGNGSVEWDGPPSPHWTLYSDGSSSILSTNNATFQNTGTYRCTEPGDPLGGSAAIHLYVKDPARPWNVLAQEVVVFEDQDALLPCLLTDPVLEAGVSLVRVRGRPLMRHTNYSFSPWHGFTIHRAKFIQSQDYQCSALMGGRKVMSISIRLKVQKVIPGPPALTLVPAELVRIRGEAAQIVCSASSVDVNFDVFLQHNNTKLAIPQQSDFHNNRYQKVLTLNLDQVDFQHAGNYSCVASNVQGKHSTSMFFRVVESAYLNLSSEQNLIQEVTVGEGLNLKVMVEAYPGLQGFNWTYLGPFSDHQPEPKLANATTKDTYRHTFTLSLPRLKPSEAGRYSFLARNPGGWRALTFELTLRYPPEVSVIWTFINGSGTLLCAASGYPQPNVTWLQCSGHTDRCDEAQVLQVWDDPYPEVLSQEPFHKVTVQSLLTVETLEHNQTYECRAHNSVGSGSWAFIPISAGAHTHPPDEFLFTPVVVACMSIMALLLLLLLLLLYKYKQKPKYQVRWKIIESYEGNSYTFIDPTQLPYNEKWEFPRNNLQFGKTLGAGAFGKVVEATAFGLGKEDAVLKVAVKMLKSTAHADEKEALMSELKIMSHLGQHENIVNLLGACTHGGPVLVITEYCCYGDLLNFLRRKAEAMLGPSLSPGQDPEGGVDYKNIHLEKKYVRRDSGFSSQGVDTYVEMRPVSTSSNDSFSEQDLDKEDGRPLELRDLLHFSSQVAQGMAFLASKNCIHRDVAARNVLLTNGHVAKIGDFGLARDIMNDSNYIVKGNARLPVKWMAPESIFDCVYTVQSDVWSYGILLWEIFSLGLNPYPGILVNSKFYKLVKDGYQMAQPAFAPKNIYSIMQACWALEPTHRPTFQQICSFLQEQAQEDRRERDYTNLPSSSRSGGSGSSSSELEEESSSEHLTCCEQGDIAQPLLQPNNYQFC

SMILES	Kd (CSF1R)	Kd (EPHA6)	Kd (ERK8)	Kd (MEK5) [µM]	Kd (MUSK)	Kd (p38-beta)
CNC(=O)c1cc(Oc2ccc(NC(=O)Nc3ccc(Cl)c(C(F)(F)F)c3)c(F)c2)ccn1 [Regorafenib, reference compound]	0.043 µM and 0.01 µM	0.048 µM and 0.023 µM	0.025 µM and 0.017 µM	0.04	0.068 µM and 0.067 µM	0.044 µM and 0.028 µM
NC(=O)c1cc(Oc2ccc(NC(=O)Nc3ccc(Cl)c(C(F)(F)F)c3)c(F)c2)cc[n+]1[O-] [M‐5]	0.013 µM	0.64 µM	0.026 µM	0.01	0.14 µM	0.025 µM
CNC(=O)c1cc(Oc2ccc(NC(=O)Nc3ccc(Cl)c(C(F)(F)F)c3)c(F)c2)cc[n+]1[O-] [M‐2]	0.021 µM	0.21 µM	0.016 µM	0.01	0.14 µM	0.0087 µM
